The numbers were not newly measured in patent US6362169B1 (priority 1998, dated 2002), which cites them from elsewhere.

SMILES strings stand for the structures.

In the data set the test system is Helicobacter pylori. As to conditions: combination use with a proton pump inhibitor or a bismuth preparation (WO 97/02039).

Turning to `CO[C@H]1/C=C/O[C@@]2(C)Oc3c(C)c(O)c4c(c3C2=O)C2=NC3(CCN(CC(C)C)CC3)NC2=C(NC(=O)/C(C)=C\C=C\[C@H](C)[C@H](O)[C@@H](C)[C@@H](O)[C@@H](C)[C@H](OC(C)=O)[C@@H]1C)C4=O` [Rifabutin, rifabutin], the “effect on minimum inhibitory concentration by combination use” value is recorded as “synergistic effect”.
